Reference: US20090318403A1, “ANTIBIOTIC COMPOSITION” (Prosensa Technologies B.V., priority 2006, published 2009)
Where two headings read alike, the source gives them in different places.

What was measured:
Format in all cases: cell-based
[1] = test system: multidrug-resistant Acinetobacter baumannii LUH5771; assay: Growth inhibition of multidrug-resistant A. baumannii LUH5771; conditions: for Susceptibility of the isolate to treatment: multi-resistant A. baumannii clinical isolate
[2] = test system: Pseudomonas aeruginosa PA01; assay: Growth inhibition (MIC, OD550 after 20 h) of P. aeruginosa PA01; conditions: for MIC of antibiotic alone: antibiotic alone (Table 1); for MIC of antibiotic: PA01, inoculum 10^4 bacteria in 20% LB, after 20 h, antibiotic alone (Table 3); for MIC: Pseudomonas aeruginosa
[3] = test system: extended β-lactamase (ESBL) producing Klebsiella pneumoniae LUH5344; assay: Growth inhibition (MIC) of ESBL producing K. pneumoniae LUH5344; conditions: K. pneumoniae LUH5344, 100% LB
[4] = test system: ceftazidime-resistant P. aeruginosa clinical isolate PA 24-7-3; assay: Growth inhibition (MIC) of ceftazidime-resistant P. aeruginosa PA 24-7-3; conditions: Pseudomonas aeruginosa, PA 24-7-3, 20% LB
[5] = Sensitizer effect of short lipoamines (our studies)
From the text: R1 in formula I represents a linear or branched alkyl group comprising at least 7 atoms in a straight chain. In this context alkyl group means that it is a group containing carbon atoms. For instance, for the lipoamines butylamine, pentylamine and hexylamine as disclosed in JP 57155954 no effect was found in our studies. It is understood that if not specified otherwise, C, O, N and S atoms in the alkyl group further comprise hydrogen atoms to properly satisfy the valency of the respective atom. At least 7 atoms in a straight chain is with respect to the longest group of atoms, not including hydrogen, directly connected to one another by covalent bonds starting from the nitrogen (N) in formula I. Such a group of at least 7 atoms in a straight chain thus can be part of cyclic elements, including aromatic rings, in R1, or in other words, one or more (saturated and/or unsaturated) rings can form (part of) the alkyl group comprising at least 7 atoms in a straight chain. The alkyl group may comprise one or more O, N and/or S atoms, which means that the chain of carbon atoms may be interrupted by one or more O, N and/or S atoms. It is preferred the alkyl group comprises an ω-CH3 group, or in other words starting from the nitrogen (N) in formula I the longest alkyl group preferably ends with a CH3.

[6] = test system: P. aeruginosa clinical isolate PA7253; assay: Growth inhibition (MIC) of clinical P. aeruginosa isolate PA7253; conditions: Pseudomonas aeruginosa, isolate PA7253, 10^4 bacteria in 20% LB, 20 h
[7] = test system: P. aeruginosa clinical isolate PA7249; assay: Growth inhibition (MIC) of clinical P. aeruginosa isolate PA7249; conditions: Pseudomonas aeruginosa, isolate PA7249, 10^4 bacteria in 20% LB, 20 h
[8] = test system: P. aeruginosa clinical isolate PA7247; assay: Growth inhibition (MIC) of clinical P. aeruginosa isolate PA7247; conditions: Pseudomonas aeruginosa, isolate PA7247, 10^4 bacteria in 20% LB, 20 h
[9] = test system: P. aeruginosa clinical isolate PA7243; assay: Growth inhibition (MIC) of clinical P. aeruginosa isolate PA7243; conditions: Pseudomonas aeruginosa, isolate PA7243, 10^4 bacteria in 20% LB, 20 h
[10] = test system: P. aeruginosa clinical isolate PA7252; assay: Growth inhibition (MIC) of clinical P. aeruginosa isolate PA7252; conditions: Pseudomonas aeruginosa, isolate PA7252, 10^4 bacteria in 20% LB, 20 h
[11] = PA01, 20% LB, 20 h, sensitizer alone

## gentamicin
[1]; A. baumannii LUH5771, gentamicin alone
  MIC gentamicin: >200 µg·mL
[1]
  Susceptibility of the isolate to treatment: resistant

## CC(=O)NC[C@H]1CN(c2ccc(N3CCOCC3)c(F)c2)C(=O)O1 [linezolid]
[2]; PA01, 20% LB, 20 h
  MIC of antibiotic alone: MIC >200 ug/mL μg/mL

## CC(C)(O/N=C(\C(=O)N[C@@H]1C(=O)N2C(C(=O)[O-])=C(C[n+]3ccccc3)CS[C@H]12)c1csc(N)n1)C(=O)O [ceftazidime]
[3]; read-out: MIC ceftazidime
  MIC: 6.25 µg/mL
[4]; read-out: MIC ceftazidime
  MIC: 6.25 µg/mL

## CCn1cc(C(=O)O)c(=O)c2ccc(C)nc21 [nalidixic acid]
[2]
  MIC of antibiotic: 25 µg/mL

## CCCCCCCCCCCCCCCCCCN [stearylamine]
[2]; [11]
  MIC: ≥ 20 µM

## CCCCCN [pentylamine]
[5]
  Sensitizer effect: no effect

## CCCCN [butylamine]
[5]
  Sensitizer effect: no effect

## CC1(C)S[C@@H]2[C@H](NC(=O)[C@H](N)c3ccccc3)C(=O)N2[C@H]1C(=O)O [ampicillin]
[6]; read-out: MIC ampicillin
  MIC: > 200 µg/mL
[7]; read-out: MIC ampicillin
  MIC: > 200 µg/mL
[2]; PA01, 20% LB, 20 h
  MIC of antibiotic alone: MIC >200 μg/mL
[2]
  MIC of antibiotic: >200 µg/mL
[8]; read-out: MIC ampicillin
  MIC: > 200 µg/mL
[9]; read-out: MIC ampicillin
  MIC: > 200 µg/mL
[10]; read-out: MIC ampicillin
  MIC: > 200 µg/mL
[1]
  Susceptibility of the isolate to treatment: resistant

## CCCCCCN [hexylamine]
[5]
  Sensitizer effect: no effect

## CCCCCCCC/C=C\CCCCCCCCN [oleylamine]
[6]; read-out: MIC oleylamine
  MIC: > 40 µM
[7]; read-out: MIC oleylamine
  MIC: > 40 µM
[3]; read-out: MIC oleylamine
  MIC: ≥ 40 µM
[2]; [11]
  MIC: ≥ 20 µM
[8]; read-out: MIC oleylamine
  MIC: ≥ 40 µM
[9]; read-out: MIC oleylamine
  MIC: > 40 µM
[10]; read-out: MIC oleylamine
  MIC: ≥ 40 µM
[1]; A. baumannii LUH5771, oleylamine alone
  oleylamine bactericidal concentration: at ≧5 μM
[1]
  Susceptibility of the isolate to treatment: resistant
[4]; read-out: MIC oleylamine
  MIC: ≥ 20 µM

## CC(C)c1ccc2c(c1)CC[C@H]1[C@](C)(CN)CCC[C@]21C [dehydroabietylamine]
[2]; [11]
  MIC of sensitizer alone: MIC at ≧20 μM

## CC/C(=C(\c1ccccc1)c1ccc(OCCN(C)C)cc1)c1ccccc1 [tamoxifen]
[2]; [11]
  MIC: ≥ 20 µM
